Results: patent US9642362B2, “Antimicrobial compositions and uses thereof” (CASCADES CANADA ULC, priority 2012, dated 2017)
Where no end group is shown, it is not given here.

Key:
E. coli ATCC 11229 [1] = experiment: Agar diffusion test of pre-soaked paper towel; format: cell-based, Escherichia coli; details: FIG. 5
Text: The antimicrobial activity of the compositions as described herein on a cellulosic substrate could be determined by soaking the cellulosic substrate in the compositions to be tested and plating the cellulosic substrate on agar. An agar diffusion test could then be performed.
The agar well diffusion method previously described by Tagg et al. 1976 was applied as a rapid method to detect the inhibitory activity of the compounds directly (as a solution) or after immobilization on paper towel. Briefly, 25 mL of sterile TSB with 0.8% (w/v) agar was seeded with 150 μL of an overnight culture of one of the target sensitive strains and poured into a sterile Petri dish (Starstedt Inc., Montreal, Canada). The Petri dishes were kept for 20 min at room temperature under sterile conditions to allow agar solidification. Wells 7 mm in diameter were then cut in the solidified agar using the wide end of a sterile 5-mL pipette. Each well was filled with 80 μL of the compound or mixture to be tested. In the case of pre-soaked paper towel, circles 1 cm in diameter were cut and deposited directly on the solidified agar. All plates were incubated at 30° C. for 18 h and the diameter of the zone of inhibition was measured.
The aim of this experiment was to study the inhibition of bacterial growth by the antimicrobial Mix I and II in association with paper towels.

E. coli ATCC 11229 [2] = experiment: Growth curves by microplate microdilution method; format: cell-based, Escherichia coli; details: for Reduction of growth, taken separately compared with combined (Mix II): FIG. 1A; for Inhibition (growth curves): FIGS. 1A, 2, compounds alone at citric acid 0.25%, lactic acid 0.25%, reuterin 1.25%, or combined as Mix
Description: (§1) The inhibitory activity of the various antimicrobial compounds alone or in combination was assayed using the microtiter plate critical dilution method with two-fold serial dilutions in TSB (Turcotte et al., 2004). The 100-μL carry-over volume was drawn into the multi-channel pipette four times between each dilution. Wells were then seeded with 40 μL of target strain overnight culture diluted 1,000 fold. The plates (MIC-2000 U-Bottom Microtiter® Plates; Thermo Labsystems, Franklin, Mass., USA) were incubated at 30° C. for 18 h before reading the optical density at 650 nm using a Thermomax microplate reader (Molecular Devices, Opti-Resources, Charny, QC, Canada).
(§2) One arbitrary unit (AU) was defined as a 100-μL portion of the highest dilution of tested sample that inhibited growth in a well after 18 h of incubation (Daba et al, 1993). […] The number of AU per ml is thus […], where n=number of inhibited wells.

Listeria ivanovii HPB28 = experiment: Growth curves by microplate microdilution method; format: cell-based; details: for Reduction of growth, taken separately compared with combined (Mix II): FIG. 1B; for Reduction of growth, taken separately compared with combined (Mix I): FIG. 2B, lactic acid (0.125%), citric acid (0.0625%) and pediocin; for Inhibition (growth curves): FIGS. 1B, 2, compounds alone at citric acid 0.25%, lactic acid 0.25%, reuterin 1.25%, or combined as Mix
Description: as §1, §2

| Molecule | Inhibition of bacterial growth, individually compared with Mix I and Mix II (E. coli ATCC 11229 [1]) | Reduction of growth, taken separately compared with combined (Mix II) (E. coli ATCC 11229 [2]) | Inhibition (growth curves) (E. coli ATCC 11229 [2]) | Reduction of growth, taken separately compared with combined (Mix II) (Listeria ivanovii HPB28) | Reduction of growth, taken separately compared with combined (Mix I) (Listeria ivanovii HPB28) | Inhibition (growth curves) (Listeria ivanovii HPB28) |
| --- | --- | --- | --- | --- | --- | --- |
| CC(=O)O [acetic acid] | do not inhibit E. Coli ATCC 11229 bacterial growth as efficiently as Mix I |  |  |  |  |  |
| O=C(O)CC(O)(CC(=O)O)C(=O)O [citric acid] |  | do not reduce the growth of E. Coli ATCC 11229 or Listeria ivanovii HPB28 as efficiently | partial and non-significant inhibition | do not reduce the growth of E. Coli ATCC 11229 or Listeria ivanovii HPB28 as efficiently | do not reduce the growth of Listeria ivanovii HPB28 as efficiently | partial and non-significant inhibition |
| CC(O)C(=O)O (centres unmarked) [lactic acid] | do not inhibit E. Coli ATCC 11229 bacterial growth as efficiently as Mix I | do not reduce the growth of E. Coli ATCC 11229 or Listeria ivanovii HPB28 as efficiently | partial and non-significant inhibition | do not reduce the growth of E. Coli ATCC 11229 or Listeria ivanovii HPB28 as efficiently | do not reduce the growth of Listeria ivanovii HPB28 as efficiently | partial and non-significant inhibition |
| pediocin: Fresh pediocin extract; class IIa bacteriocin produced by lactic acid bacteria (KYYGNGVTCGKHSCSVDWGKATTCIINNGAMAWATGGHQGNHKC; ends and bridges not checked; cysteine pairing not given here; UniProt P29430 19-62, looked up) | do not inhibit E. Coli ATCC 11229 bacterial growth as efficiently as Mix I |  |  |  | do not reduce the growth of Listeria ivanovii HPB28 as efficiently |  |
